Measurements from patent publication US6534079B1, “Passive space insect repellant strip” (priority 1999, dated 2003).

Columns and labels:
[1] = tested on: Aedes Aegypti female mosquitoes; test: Knockdown efficacy against mosquitoes in glass chamber; type: in vivo; details: for pest or weed control at 5 mg/strip: Aedes aegypti, 24 h, read-out: Dead (%); for KD50 / KD80 / Dead (%): Barex strips coated with 5 mg of each active; for KD50 / KD80: 20 min test period; for knockdown / biological activity in glass chamber (in words): fresh samples, 5 mg, 20 minute test period; for Dead (%): 24 hours post treatment
Protocol: Markings were made to identify the side to be treated with the active. Markings were also made to leave one inch spacing on either ends 12 and 14 of the strip 10 to enable handling. Intermediate solutions of the active in organic solvents were prepared. A micropipettor, calibrated to transfer a known amount of intermediate solution on to the strip, was used to dose the strip with the active. The solution, after transferring onto the strip 10, was made to wet a 2 inch by 8 inch area 16 between ends 12 and 14, and allowed to sit on the bench top until most of the solvent evaporated and the strips appeared dry (which took 15 minutes to 30 minutes). Strips 10 were then either folded twice and held together with a metal clip and kept in a glass jar or were wrapped in aluminum foil and kept in a sealed plastic bag. These were then stored in the refrigerator at −10° C. until further use.
A Glass chamber (0.75 m×0.75 m×0.75 m) was used for the test and was maintained at 80° F. and 50% relative humidity. Three treated strips were placed on a card board tray covered with an aluminum foil and then transferred to the glass chamber. The strips were exposed in the chamber for three minutes to allow insecticide vapors build-up in the enclosed air. Strips were then quickly removed, folded and stored in the refrigerator. Ten laboratory-cultured adult Aedes Aegypti female mosquitoes were released into the chamber. […] After 20 minutes of exposure, all mosquitoes were collected and placed in a container with sucrose pad. […] KD50, KD80, and % Dead values of the tests were obtained for analysis. KD50 and KD80 are defined as the time taken for 50% and 80% of the mosquitoes to get knocked down and % Dead is simply the percentage of mosquitoes that are dead after 24 hour period. The glass chamber was then dismantled and thoroughly wiped with soap solution to remove contamination of the active. The walls were then wiped with a paper towel and allowed to dry before assembling again for the next run.

[2] = Release of active in wind tunnel (residual analysis); type: physicochemical; details: for % Evap Barex: 5 mg transfluthrin coated on Barex (103 sq. cm.) from the named solvent; for % Evap Filter Paper: 5 mg transfluthrin coated on filter paper (103 sq. cm.) from the named solvent
Description: A computer controlled wind tunnel was custom designed using a fan 18 for drawing fresh air designated by arrows 20 past baffles 22 into a chamber 28 containing multiple strips 10 to determine the release of actives from these strips under controlled environmental conditions (see FIG. 2).
Preset wind velocities can be entered into the computer and maintained without operator's involvement during the testing period. Honey comb flow straighteners 24 and 26 were placed on either ends of the wind tunnel to obtain uniform velocity profiles. Strips 10 were placed on the floor of a 12 inch by 12 inch cross sectioned body in triplicates in a staggered fashion so as to equalize any possible errors that arise from spatial dependency of air velocity. All studies were carried out at a constant air flow rate of 2 meters per second as determined by a velocity probe 30 in chamber 28 and at an ambient temperature of 70° F. for 72 hours. The exhaust designated by arrows 32 of the wind tunnel was directly connected to the building ventilation duct to prevent Transfluthrin contamination of the lab. Strips 10 were removed at predetermined intervals and stored in the refrigerator for subsequent analytical or biological testing.
(§1) A validated analytical method was used to determine the residual level of active on the strips using gas chromatography. All samples were analyzed using this method to determine evaporation losses and release rates in the wind tunnel.

Culex quinquefasciatus = test: Field trials in living rooms, human bare-leg catch; type: in vivo; details: Malaysia field study
Protocol: Field trials against Culex quinquefasciatus were conducted in living rooms of residential houses in a squatter area at Ujung Batu, Butterworth on the Northwest peninsula of Malaysia on plastic strips coated with transfluthrin. […] A total of four configurations were tested.
Config. A 2 sheets hung together on each of four walls
Config. B 1 sheet hung on each four walls
Config. C 1 sheet hung on each two opposite walls
Config. D 1 sheet hung on a wall
The average volume of the rooms where the test is conducted is 75.5 cubic meters […]. The human baits were seated 1-2 meters away from all the treated sheets and the efficacy was evaluated using the human bare-leg catch technique during the first 0-2 hours, 24 hours, 96 hours, and 168 hours the placing of the test sheets in the rooms.
These tests were conducted under a rigorous test environment. The predominant species collected during the trials was Culex quinquefasciatus which are most tolerant to pyrethroid based household insecticide products among the common mosquitoes found in the living premises in tropical and subtropical regions globally. Due to the local weather changes, the squatter area chosen for the trials indicated lower indoor mosquito density during the pretreatment and treatment trials.

[3] = Residual analysis and release rate of large chamber samples; type: physicochemical
Protocol: as §1
The 8 hour aged strips were also sent to analytical for residual analysis. Results, as summarized in Table 18, indicate that the average release of transfluthrin during the 8 hour period is ˜0.2 mg/hr.
Lab studies were also conducted on a portable electric device where a corrugated disc was impregnated with 280 mg of transfluthrin. The disc was placed in a device which has a fan that runs on a battery. Air flows through the holes of the disc releasing the transfluthrin into the environment. Lab studies were conducted on this unit to determine its efficacy. […] Weight loss experiments were also conducted to determine the release rates from this unit.

Row | % Evap Barex [2] [%] | % Evap Filter Paper [2] [%] | Compound | pest or weed control at 5 mg/strip [1] [%] | KD50 [1] [min] | KD80 [1] [min] | knockdown / biological activity in glass chamber (in words) [1] | also measured
1 | – | – | Cc1c(F)c(F)c(COC(=O)[C@@H]2[C@H](/C=C(\Cl)C(F)(F)F)C2(C)C)c(F)c1F (racemic) [Tefluthrin] | 100 | 13.00 | 16.67 | relatively lower activity | KD50 ([1]; listed as tefluthrin): 13 min
2 | – | – | C=CCC1=C(C)C(OC(=O)[C@@H]2[C@@H](C=C(C)C)C2(C)C)CC1=O (some centres unmarked) [Bioallethrin] | – | >20 | >20 | either minimal activity or no activity at all | Dead (%) [1]: 0%
3 | – | – | CC1(C)C(C=C(Cl)Cl)C1C(=O)OC(C#N)c1cccc(Oc2ccccc2)c1 (centres unmarked) [Cypermethrin] | 0 | >20 | >20 | either minimal activity or no activity at all | –
4 | – | – | CCN(CC)C(=O)c1cccc(C)c1 [DEET] | – | >20 | >20 | either minimal activity or no activity at all | Dead (%) [1]: 0%
5 | – | – | CC1(C)[C@H](C(=O)O[C@H](C#N)c2cccc(Oc3ccccc3)c2)[C@@H]1C=C(Br)Br [Deltamethrin] | 20 | >20 | >20 | either minimal activity or no activity at all | –
6 | – | – | CCOP(=S)(OCC)Oc1nc(Cl)c(Cl)cc1Cl [Dursban] | 0 | >20 | >20 | either minimal activity or no activity at all | –
7 | – | – | C#CCC1=C(C)C(OC(=O)C2C(C=C(C)C)C2(C)C)CC1=O (centres unmarked) [ETOC] | – | >20 | >20 | either minimal activity or no activity at all | Dead (%) [1]: 0%
8 | 70.3 | 45.0 | CCO [Ethanol] | – | – | – | – | –
9 | 57.6 | 61.1 | CCOC(C)=O [Ethyl Acetate] | – | – | – | – | –
10 | – | – | CC(C)C(C(=O)OC(C#N)c1cccc(Oc2ccccc2)c1)c1ccc(Cl)cc1 (centres unmarked) [Fenvalerate] | 0 | >20 | >20 | either minimal activity or no activity at all | –
11 | 86.8 | 78.5 | CCCCCCC [Heptane] | – | – | – | – | –
12 | 50.3 | 49.0 | CC(C)O [IPA, isopropyl alcohol] | – | – | – | – | –
13 | 70.9 | 63.8 | CC(=O)OCC(C)C [Isobutyl Acetate] | – | – | – | – | –
14 | 57.6 | 55.7 | COC(C)=O [Methyl Acetate] | – | – | – | – | –
15 | – | – | CC1(C)C(C=C(Cl)Cl)C1C(=O)OCc1cccc(Oc2ccccc2)c1 (centres unmarked) [Permanone] | – | >20 | >20 | either minimal activity or no activity at all | Dead (%) [1]: 0%
16 | – | – | CNC(=O)Oc1ccccc1OC(C)C [Propoxur] | – | – | – | either minimal activity or no activity at all | –
17 | – | – | CC(C)=CC1C(C(=O)OCc2coc(Cc3ccccc3)c2)C1(C)C (centres unmarked) [Resmethrin] | 10 | >20 | >20 | either minimal activity or no activity at all | –
18 | – | – | CC(C)=CC1C(C(=O)OCc2cccc(Oc3ccccc3)c2)C1(C)C (centres unmarked) [Sumithrin] | 0 | >20 | >20 | either minimal activity or no activity at all | –
19 | 59.6 | 56.4 | C1CCOC1 [THF] | – | – | – | – | –
20 | – | – | CC1(C)[C@H](C=C(Cl)Cl)[C@H]1C(=O)OCc1c(F)c(F)cc(F)c1F [Transfluthrin, (IR-trans)-(2,3,5,6-tetrafluorophenyl)methyl 3-(2,2-dichoroethenyl)-2,2-dimethyl cyclopropane carboxylate] | 100 | – | 6.83 | highest activity | transfluthrin release rate sufficient to achieve practical control (Culex quinquefasciatus): 0.18 mg/h; Transfluthrin loss in 8 hr ([3]; Barex strip on fan at 3.5 m/s): 1.5 mg; Release rate of Transfluthrin ([3]; average during the 8 hour period, Barex strip on fan, listed as transfluthrin): ~0.2 mg/h
21 | – | – | C#CC(OC(=O)C1C(C=C(C)C)C1(C)C)/C(C)=C/CC (centres unmarked) [Vapothrin] | – | >20 | >20 | either minimal activity or no activity at all | Dead (%) [1]: 0%

Row | Compound | % Evap Barex [2] [%] | % Evap Filter Paper [2] [%] | pest or weed control at 5 mg/strip [1] [%] | KD50 [1] [min] | KD80 [1] [min] | knockdown / biological activity in glass chamber (in words) [1] | also measured
22 | CCC(C)O (centres unmarked) [2-Butanol] | 60.3 | 67.1 | – | – | – | – | –
23 | CC(C)=O [Acetone] | 58.3 | 57.7 | – | – | – | – | –
24 | CCC(C)=O [MEK] | 67.5 | 62.4 | – | – | – | – | –
25 | CO [Methanol] | 58.3 | 47.0 | – | – | – | – | –
26 | Cc1ccccc1 [Toluene] | 60.9 | 58.4 | – | – | – | – | –
